Assay results as given in patent EP0306698A1, “Condensed diazepinones, processes for their preparation, and medicaments containing these compounds” (Dr. Karl Thomae GmbH, priority 1987, dated 1989).

Key:
[1] = tested on: Acetylcholinwirkung auf Blase; experiment: Inhibition of the acetylcholine effect on bladder; format: in vivo, Meerschweinchen
Text: (§1) Dabei wurde die Herzfrequenz durch extrakorporale Ableitung des EKG, der Ausatemwiderstand nach Konzett-Rößler und die Kontraktion […] an den untersuchten Organen wurden Dosis-Wirkungskurven aufgenommen und daraus -log EDso-Werte bestimmt. Ergebnisse siehe Tabelle V.

[2] = molecular target: T1, muskarinischen Rezeptoren (Tränendrüsen) (Rattus norvegicus, UniProt P08483); details: in vivo, iv
[3] = tested on: Acetylcholinwirkung auf Bronchien; experiment: Inhibition of the acetylcholine effect on bronchi; format: in vivo, Meerschweinchen
Text: as §1

[4] = molecular target: T2, muskarinischen Rezeptoren (Ventrikel) (Rattus norvegicus, UniProt P10980); experiment: Receptor binding test in vivo (3H-NMS), heart ventricle; parameters: species or system Ratten; details: iv
T2 construct: wurden die Tiere getötet, das Herz, die Bronchien und die Tränendrüsen entnommen; from tissue; host or cells: rat heart (atrium, ventricle), in vivo labelling with 3H-NMS
T2 sequence (P10980 1-466): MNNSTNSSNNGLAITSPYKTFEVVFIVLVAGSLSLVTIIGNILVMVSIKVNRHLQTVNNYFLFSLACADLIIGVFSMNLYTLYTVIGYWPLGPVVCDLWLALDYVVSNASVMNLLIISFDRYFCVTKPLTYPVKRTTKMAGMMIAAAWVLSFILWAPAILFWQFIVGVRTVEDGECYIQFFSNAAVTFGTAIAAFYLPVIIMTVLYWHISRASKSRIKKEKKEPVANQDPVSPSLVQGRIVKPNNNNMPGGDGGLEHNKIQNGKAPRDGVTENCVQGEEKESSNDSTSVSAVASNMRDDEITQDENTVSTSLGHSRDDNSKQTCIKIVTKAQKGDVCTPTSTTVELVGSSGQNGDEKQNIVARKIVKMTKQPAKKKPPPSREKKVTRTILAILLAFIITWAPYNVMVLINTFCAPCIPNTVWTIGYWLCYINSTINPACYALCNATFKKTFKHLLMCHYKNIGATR
Experimental: (§2) Für diese Experimente wurden weibliche Ratten mit einem Körpergewicht von ca. 200 g verwendet. Vor Versuchsbeginn wurden die Tiere mit einer Dosis von 1,25 g/kg Urethan narkotisiert. Die Tiere erhielten jeweils die vorgesehene Dosis der Prüfsubstanz durch i.v. Injektion. Nach Ablauf von 15 Minuten wurde auf gleiche Weise 113 ng/kg ^3H-N-Methylscopolamin (^3H-NMS) gegeben. Nach weiteren 15 Minuten wurden die Tiere getötet, das Herz, die Bronchien und die Tränendrüsen entnommen. Diese Organe wurden in Soluene R aufgelöst und die Radioaktivität bestimmt. Diese Messwerte wurden als Totalbindung angenommen. […] Aus diesen Versuchen wurden für die einzelnen Organe IDso-Werte ermittelt. Die IDso-Werte sind Dosen der Prüfsubstanzen, die 50% der spezifischen Bindung von ^3H-NMS an die muskarinischen Rezeptoren der jeweiligen Organe hemmten.

Speichelsekretion = experiment: Inhibition of pilocarpine-induced salivation in the rat; format: in vivo, Ratte; details: in vivo
Experimental: Nach Lavy und Mulder (Arch. int. Pharmacodyn. 178, 437-445, (1969)) erhielten mit 1,2 g/kg Urethan narkotisierte männliche THOM-Ratten steigende Dosen der Substanz i.v.. Die Speichelsekretion wurde durch s.c. Gabe von 2 mg/kg Pilocarpin ausgelöst. Der Speichel wurde mit Fließpapier aufgesaugt, die von ihm eingenommene Fläche alle 5 Minuten planimetrisch bestimmt. Die Dosis der Substanz, die das Speichelvolumen um 50% verminderte, wurde graphisch ermittelt. Ergebnisse siehe Tabelle 11.

[5] = molecular target: T3, muskarinischen Rezeptoren (Atrium) (Rattus norvegicus, UniProt P10980); experiment: Receptor binding test in vivo (3H-NMS), heart atrium; parameters: species or system Ratten
T3 construct: wurden die Tiere getötet, das Herz, die Bronchien und die Tränendrüsen entnommen; from tissue; host or cells: rat heart (atrium, ventricle), in vivo labelling with 3H-NMS
T3 sequence (P10980 1-466): T2 sequence (P10980 1-466)
Text: as §2, with “Nach Ablauf von 15 Minuten wurde auf gleiche Weise 113 ng/kg ^3H-N-Methylscopolamin (^3H-NMS) gegeben.” left out

M1 = M1 activity in the rat: inhibition of blood pressure rise caused by McN-A-343; format: in vivo, Ratte
Experimental: (§3) Die angewandte Methode wurde von Hammer und Giachetti (Life Sciences 31, 2991-2998 (1982)) beschrieben. 5 Minuten nach intravenöser Injektion steigender Dosen der Substanz wurden entweder der rechte Vagus elektrisch stimuliert (Frequenz: 25 Hz; Pulsbreite: 2ms; Reizdauer: 30s; Voltzahl: supramaximal) oder 0,3 mg/kg McN-A-343 in männliche THOM-Ratten intravenös injiziert. Die durch Vagusstimulation hervorgerufene Bradykardie und der durch McN-A-343 verursachte Blutdruckanstieg wurden bestimmt. Die Dosis der Substanzen, die entweder die vagale Bradykardie (M2) oder den Blutdruckanstieg (Mi) um 50% verminderte, wurde graphisch ermittelt. Ergebnisse siehe Tabelle II.

[6] = tested on: Acetylcholinwirkung auf Herzfrequenz; experiment: Inhibition of the acetylcholine effect on heart rate; format: in vivo, Meerschweinchen
Text: as §1

M2 = M2 activity in the rat: inhibition of bradycardia induced by vagus stimulation; format: in vivo, Ratte; details: i.v.; dose reducing vagal bradycardia by 50%; 5 min after injection
Experimental: as §3

[7] = molecular target: T1, muskarinischen Rezeptoren (Tränendrüsen); experiment: in vivo; details: iv, 0.5 h, read-out: ID50 Tränendrüsen
[8] = molecular target: T4, muscarinischen Rezeptoren (Herz) (Rattus norvegicus, UniProt P10980); experiment: biochemical; format: binding, Ratte; details: whole heart homogenate 1:400, 0,3 nmolar 3H-NMS, 30°C, 45 min; read-out: Rezeptor-Bindungs-Tests -log IC50 Herz (converted)
T4 construct: Das Gesamtherz wurde mit einer Schere zerkleinert; Alle Organe wurden abschließend in einem Potter homogenisiert; from tissue; host or cells: rat whole heart homogenate
T4 sequence (P10980 1-466): T2 sequence (P10980 1-466)
Text: Als Organspender dienten männliche Sprague-Dawley-Ratten mit 180-220 g Körpergewicht. Nach Entnahme von Herz und Submandibularis wurden alle weiteren Schritte in eiskaltem Hepes-HCI-Puffer (pH 7,4; 100 m molar NaCI, 10 m molar MgCI2) vorgenommen. Das Gesamtherz wurde mit einer Schere zerkleinert. Alle Organe wurden abschließend in einem Potter homogenisiert.
Für den Bindungstest wurden die Organhomogenate in folgender Weise verdünnt: • Gesamtherz 1:400 • Submandibularis 1:400
Die Inkubation der Organhomogenate erfolgte bei einer bestimmten Konzentration des Radioliganden und einer Konzentrationsreihe der nichtradioaktiven Testsubstanzen im Eppendorf-Zentrifugenröhrchen bei 30°C. Die Inkubationsdauer betrug 45 Minuten. Als Radioligand wurde 0,3 nmolar ^3H-N-Methylscopolamin (^3H-NMS) verwendet. Die Inkubation wurde durch Zugabe von eiskaltem Puffer mit nachfolgender Vakuumfiltration beendet. Die Filter wurden mit kaltem Puffer gespült und ihre Radioaktivität bestimmt. Sie repräsentiert die Summe von spezifischer und unspezifischer Bindung von ^3H-NMS. Der Anteil der unspezifischen Bindung wurde definiert als jene Radioaktivität die in Anwesenheit von 1 u. molar Quinciidinylbenzilat gebunden wurde. Es wurden immer Vierfachbestimmungen vorgenommen. Die ICso-Werte der nicht markierten Testsubstanzen wurden graphisch bestimmt. Sie repräsentieren jene Konzentration der Testsubstanz, bei welcher die spezifische Bindung von ^3H-NMS an die muscarinischen Rezeptoren in den verschiedenen Organen um 50 % gehemmt wurde.

T1 sequence (P08483 whole entry): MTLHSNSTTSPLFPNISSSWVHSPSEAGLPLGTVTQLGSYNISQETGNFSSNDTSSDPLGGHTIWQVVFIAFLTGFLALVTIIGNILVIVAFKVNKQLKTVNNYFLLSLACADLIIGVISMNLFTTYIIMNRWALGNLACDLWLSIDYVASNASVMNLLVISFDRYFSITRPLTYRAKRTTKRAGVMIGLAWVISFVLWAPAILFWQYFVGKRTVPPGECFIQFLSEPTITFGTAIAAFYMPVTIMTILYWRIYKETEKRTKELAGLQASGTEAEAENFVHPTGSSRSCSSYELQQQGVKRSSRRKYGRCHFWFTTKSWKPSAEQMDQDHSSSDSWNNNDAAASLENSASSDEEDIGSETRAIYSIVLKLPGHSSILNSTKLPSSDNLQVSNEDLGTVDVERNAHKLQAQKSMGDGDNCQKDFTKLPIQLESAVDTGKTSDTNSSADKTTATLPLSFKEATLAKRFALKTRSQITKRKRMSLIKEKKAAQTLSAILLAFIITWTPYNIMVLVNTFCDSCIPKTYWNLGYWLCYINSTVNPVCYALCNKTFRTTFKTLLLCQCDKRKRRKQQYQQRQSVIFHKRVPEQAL

Compound	-log ED50 Blase ([1]; in vivo)	ID50 Tränendrüsen [2]	-log ED50 Bronchien ([3]; in vivo)	ID50 Herz Ventrikel ([4]; in vivo)	Verhältnis Speichelsekretionshemmung zu M2-Aktivität (Speichelsekretion)	Verhältnis der ID50 Tränendrüse zu ID50 des Atrium ([5]; in vivo)	ID50 Herz Atrium ([5]; in vivo, iv)	M1-Aktivität (Ratte) ED50 (M1; in vivo)	-log ED50 Herz ([6]; in vivo)	M2-Aktivität (Ratte) ED50 (M2)	ED50 ([1]; Cavia porcellus, 5 min, anaesthetised guinea pig, acetylcholine 5 min after test substance, bladder contraction, read-out: -log ED50 Blase (converted))	ED50 ([3]; Cavia porcellus, 5 min, anaesthetised guinea pig, acetylcholine 5 min after test substance, expiratory resistance, read-out: -log ED50 Bronchien (converted))	ED50 ([4]; rat, 0.5 h, read-out: ID50 Herz Ventrikel)	ED50 [7]	ED50 ([5]; rat, iv, 0.5 h, read-out: ID50 Herz Atrium)	IC50 [8]	M1-Aktivität (Ratte) ED50 (M1; i.v., dose reducing McN-A-343 (0,3 mg/kg) blood pressure rise by 50%, 5 min)	ED50 ([6]; Cavia porcellus, 5 min, anaesthetised guinea pig, acetylcholine 5 min after test substance, heart rate)
CN1C2CCC1CC(OC(=O)C(CO)c1ccccc1)C2 (racemic) [Z, Atropin, reference compound]	7,03 Molkg^-1	0,2 mg/kg	7,96 Molkg^-1	0,03 mg/kg	2,2	1,5	0,08 mg/kg	0.016 mg/kg	7,70 Molkg^-1	–	–	–	–	–	–	–	–	–
CCN(CC)CC1CCCCN1CC(=O)N1c2ccccc2C(=O)Nc2cccnc21 (stereo not drawn) [X, 11-[[2-[(Diethylamino)methyl]-1-piperidinyl]acetyl]-5,11-dihydro-6H-pyrido[2,3-b][1,4]-benzodiazepin-6-on, reference compound]	–	–	–	–	–	–	–	–	–	0.16 mg/kg	18.6 µmol/kg	2.63 µmol/kg	0.6 mg/kg	> 30 mg/kg	1 mg/kg	151 nM	0.988 mg/kg	1.45 µmol/kg
